Assay results from BigSolDB 2.1.

Cc1cc(C#N)c(Nc2ccccc2[N+](=O)[O-])s1
Conditions	solubility (mole fraction)
in DMSO, 292.15 K	0.0519
in DMSO, 297.15 K	0.0588
in DMSO, 301.15 K	0.0671
in DMSO, 306.15 K	0.0734
in DMSO, 310.15 K	0.0801
in DMSO, 316.15 K	0.0913
in DMSO, 320.15 K	0.101
in DMSO, 325.15 K	0.112
in DMSO, 328.15 K	0.123
in DMSO, 332.15 K	0.135
in acetic acid, 293.15 K	0.00487
in acetic acid, 297.15 K	0.00588
in acetic acid, 302.15 K	0.00725
in acetic acid, 307.15 K	0.00881
in acetic acid, 311.15 K	0.0109
in acetic acid, 316.15 K	0.0127
in acetic acid, 320.15 K	0.0159
in acetic acid, 325.15 K	0.0202
in acetic acid, 329.15 K	0.0248
in acetic acid, 333.15 K	0.0306
in acetone, 292.15 K	0.0262
in acetone, 296.15 K	0.0322
in acetone, 302.15 K	0.0377
in acetone, 305.15 K	0.0444
in acetone, 311.15 K	0.0513
in acetone, 316.15 K	0.0604
in ethanol, 292.15 K	0.00106
in ethanol, 296.15 K	0.00131
in ethanol, 302.15 K	0.00163
in ethanol, 306.15 K	0.00214
in ethanol, 311.15 K	0.00274
in ethanol, 315.15 K	0.00345
in ethanol, 320.15 K	0.00427
in ethanol, 325.15 K	0.00528
in ethanol, 329.15 K	0.00638
in ethanol, 334.15 K	0.00766
in ethyl acetate, 293.15 K	0.0199
in ethyl acetate, 296.15 K	0.0227
in ethyl acetate, 302.15 K	0.0255
in ethyl acetate, 306.15 K	0.0315
in ethyl acetate, 311.15 K	0.0379
in ethyl acetate, 315.15 K	0.0442
in ethyl acetate, 320.15 K	0.0494
in ethyl acetate, 324.15 K	0.0591
in ethyl acetate, 329.15 K	0.0713
in ethyl acetate, 333.15 K	0.0858
in methanol, 292.15 K	0.00109
in methanol, 297.15 K	0.00145
in methanol, 302.15 K	0.00186
in methanol, 306.15 K	0.00233
in methanol, 311.15 K	0.00291
in methanol, 315.15 K	0.00368
in methanol, 320.15 K	0.00464
in methanol, 324.15 K	0.00575
